Measurements taken from article PMC10870435, “A novel complement C3 inhibitor CP40-KK protects against experimental pulmonary arterial hypertension via an inflammasome NLRP3 associated pathway” (Journal of Translational Medicine, 2024).
Bridge positions count the residues as written; N and C are the ends. Square brackets hold non-standard residues; d marks the D form. Peptide text beside a SMILES is read from it. Trp(1-Me) = Cn1cc(C[C@H](N)C(=O)O)c2ccccc21; NMeI = CC[C@H](C)[C@H](NC)C(=O)O; Sar = CNCC(=O)O

Experiments:
[1] = tested on: pulmonary vascular remodeling markers (α-SMA, PCNA); assay: Lung α-SMA immunohistochemistry and PCNA western blot in PAH rats; type: in vivo, rat; conditions: MCT + CP40-KK vs MCT group
Description: (§1) In the current study, two animal experiments were conducted successively. 30 rats were randomly divided into two groups (control group and MCT group, n = 15 per group) in the first experiment. MCT group rats received a single intraperitoneally injection of MCT (40 mg/kg) on day 1 to induce PAH while control group rats received an equivoluminal saline injection intraperitoneally. For the second animal experiment, the rats were assigned into four groups (control group, MCT group, CP40-KK group, and MCT + CP40-KK group, n = 15 per group). […]
After hemodynamic measurements, the lungs were perfused with cold phosphate-buffered saline (PBS) and fixed in 4% formaldehyde for 24 h. […] Immunolabels were detected with 3, 3-Diaminobenzidine (DAB), after which the nuclei were counterstained with hematoxylin. […] For quantification analysis, the mean integrated optical density (IOD) for immunohistochemistry was determined using Image J software (National Institutes of Health, Bethesda, MD).
Proteins were collected from the fresh frozen-rat lung tissues using RIPA lysis buffer. Protein concentration was quantified using a BCA reagent. […] To compare and quantify levels of proteins, the density of each band was measured using Image J software. Equal loading for total cell or tissue lysates was determined by β-Actin western blot.

C3 activation (C3a) = assay: Plasma C3a western blot in PAH rats; type: in vivo; conditions: western blot of rat plasma; n = 6 per group
Description: as §1, with “group). The control group was given the same volume of saline subcutaneously while the CP40-KK group rats only received CP40-KK (2 mg/kg) by subcutaneous injection from day 15 to day 28 continuously.” for “group).”
[…] Protein concentration was quantified using a BCA reagent. […] To compare and quantify levels of proteins, the density of each band was measured using Image J software. Equal loading for total cell or tissue lysates was determined by β-Actin western blot.
[…] Protein concentration was quantified using a BCA reagent. […] To compare and quantify levels of proteins, the density of each band was measured using Image J software. Equal loading for total cell or tissue lysates was determined by β-Actin western blot^3,4.

CC[C@H](C)[C@H](NC(=O)[C@H](N)Cc1ccc(O)cc1)C(=O)N[C@H]1CSSC[C@@H](C(=O)N(C)[C@H](C(=O)N[C@@H](CCCCN)C(=O)N[C@@H](CCCCN)C(N)=O)[C@@H](C)CC)NC(=O)[C@H](CCCNC(=N)N)NC(=O)[C@H](Cc2c[nH]cn2)NC(=O)CN(C)C(=O)[C@H](Cc2c[nH]c3ccccc23)NC(=O)[C@H](CC(=O)O)NC(=O)[C@H](CCC(N)=O)NC(=O)[C@H](Cc2cn(C)c3ccccc23)NC(=O)[C@H](C(C)C)NC1=O [CP40-KK] (H-[dY]ICV[Trp(1-Me)]QDW[Sar]HRC[NMeI]KK-NH2; disulfide 3-12 (inferred))
expression of α-SMA in walls of small pulmonary arteries ([1]; immunohistochemistry): reduced significantly
PCNA expression in lung homogenates ([1]; western blot, n = 6 per group): decreased
plasma C3a (C3 activation ex vivo) (C3 activation (C3a)): significantly inhibit the C3 activation
